{"source": "patent US20080051379A1", "about": "“Compositions and Methods for the Treatment of Peripheral B-Cell Neoplasms” (Trustees of Boston University, priority 2004, published 2008)", "key": {"[1]": {"tested_on": "GRE luciferase constructs transiently transfected into B-CLL cells", "experiment": "GRE luciferase transactivation in B-CLL cells", "type": "cell-based, human", "conditions": "1 mM Rp-8Br-cAMPS; 8 B-CLL samples; p<0.02", "experimental": "B-CLL cells (FIG. 3A) or CCRF-CEM cells (FIG. 3B) were transiently transfected with a luciferase construct in which expression is regulated by GRE elements, followed by culture in 10 μM rolipram (R), 40 μM forskolin (Fsk), 1 μM hydrocortisone (HC), 1 mM Rp-8Br-cAMPS (Rp-8Br) or combinations of these agents. 12 hours after addition of the drugs, the relative luminescence of the samples was determined. The data shown are the mean of 8 experiments for B-CLL and two experiments for CCRF-CEM cells. The single asterisk denote a significant difference by paired student's t test between HC alone and either R/HC (FIG. 3A) or F/HC (FIG. 3B) (p<0.02). The double asterisk denotes a significant difference between Rp-8Br-cAMPS/HC and HC alone (p<0.02).\nAn MMTV GRE luciferase construct, originally created by Dr. R. Evans, was a gift from Dr. Remco Spanjaard (Dept. of Otolaryngology, Boston Medical Center)^29. 100 million B CLL cells in 200 μl of PBS were added to 500 μl of Nucleofector Solution D containing 30 μg of endotoxin-free (Qiagen) MMTV luciferase constructs. 100 μl was used per transfection using a Nucleofector electroporation instrument (Amaxa Biosystems, Koeln, Germany) using program U16. […] Up to six such aliquots of transfected cells were diluted in media and pooled, prior to distribution of 8 million cells/well in 48 well plates. Two hours after transfection, drugs, cytokines or vehicle alone were added to the transfected cells. 14 hours after transfection, samples were processed using a luciferase assay kit (Promega). Triplicate samples were analyzed with an MGM Instruments Optocomp I luminometer (Hamden, Conn.). Analysis of cell viability (trypan blue exclusion) and total protein (Pierce) verified that equivalent numbers of viable B-CLL cells were analyzed. 100 million CCRF-CEM cells were similarly transfected, cultured and analyzed except that Nucleofector program O17 was utilized. […] Data were analyzed using a two-sided paired t test for means."}, "[2]": {"tested_on": "B-CLL cells", "experiment": "Hoechst 33342 apoptosis assay, B-CLL cells", "type": "cell-based, human", "conditions": "1 mM Rp-8Br-cAMPS + 1 μM hydrocortisone, 48 hours; six B-CLL patients"}, "[3]": {"tested_on": "glucocorticoid-sensitive subclone (CEM-S2)", "experiment": "MTS cell survival assay, CEM-S2", "type": "cell-based, human", "conditions": "72 hours", "experimental": "(§1) In FIG. 5A, the polyclonal parental cell line (CCRF-CEM), the single cell-derived glucocorticoid-resistant subclone (CEM-R8) and the single cell-derived glucocorticoid-sensitive subclone (CEM-S2) were cultured for 72 hours in the presence of vehicle (ETOH) or dexamethasone at the concentrations indicated and cell viability was assessed by the MTS assay as described in Methods. In FIG. 5B, the glucocorticoid-resistant subclone (CEM-R8) and the glucocorticoid-sensitive subclone (CEM-S2) were cultured for 72 hours in the presence of hydrocortisone (HC) (10 μM HC for the CEM-R8 cells and 1 μM HC for the CEM-S2 cells), 10 μM forskolin (Fsk), 10 μM rolipram (Rol), or combinations of these agents as indicated, and cell viability was assessed by the MTS assay as described in Methods. FIG. 5C: The glucocorticoid-resistant subclone (CEM-R8) and the glucocorticoid-sensitive subclone (CEM-S2) were cultured for 72 hours in the presence of varying amounts of dibutyryl cAMP (db-cAMP) in the absence (−HC) or presence (+HC) of 1 μM hydrocortisone as indicated, and cell viability was assessed by the MTS assay as described in Methods. The data shown were normalized to the vehicle control. Results represent the mean±SD of triplicate determinations.\n(§2) CCRF-CEM cells were obtained from ATCC^27. Leukemic or normal mononuclear cells were obtained by centrifugation over Histopaque 1077 (Sigma Chemical Company, St. Louis, Mo.). For purification of T cells, whole mononuclear cells from normal subjects were incubated with magnetic beads coated with appropriate antibodies, then positively purified using a magnet (Miltenyi). […]\n(§3) Hoechst 33342 and DiOC6(3) apoptosis assays were performed as previously described^22,28. […] The absorbance (O.D.) of the formazan product was determined at 492 nm using a plate reader (Titertek Multiscan Plus, Labsystems). Percent cell viability was calculated as follows: (O.D. control sample−O.D. blank)/(O.D. test sample−O.D. blank)×100. […]"}, "[4]": {"tested_on": "B-CLL cells", "experiment": "Hoechst 33342 apoptosis assay, B-CLL cells", "type": "cell-based, human", "conditions": "for augmentation of hydrocortisone-induced apoptosis: 10 μM PDE inhibitor + 1 μM hydrocortisone; for apoptosis by Hoechst 33342 analysis: 48 hrs culture, Roli 10 μM, HC 1 μM", "experimental": "FIGS. 1A-D show the effects of the cyclic nucleotide phosphodiesterase inhibitors rolipram, RO20-1724 and cilostamide on hydrocortisone and dexamethasone-induced apoptosis in B-CLL. In FIG. 1A, leukemic cells from 11 B-CLL patients were assessed for apoptosis by […] analysis after 48 hrs culture in media alone (No treatment), 10 μM rolipram (Roli), 1 μM hydrocortisone (HC) or a combination of the two drugs (Roli+HC). In FIGS. 1B and 1C, leukemic cells from five patients with B-CLL were cultured in media alone or with a dose titration of hydrocortisone (1B: solid line) or dexamethasone (1C: solid line), followed by assessment for apoptosis by Hoechst 33342 FACS analysis at 48 hours. Using the same experimental conditions, the effect of addition of 10 μM rolipram (thick dashed line) to the glucocorticoids was also assessed. In FIG. 1D, the apoptotic effects of the PDE4 inhibitor RO20-1724 (RO20) (10 μM) or the PDE3 inhibitor cilostamide (Cilost) (10 μM) were assessed on B-CLL cells when combined with 1 μM hydrocortisone. Data represent the mean±SEM of triplicate samples.\nBlood samples were obtained by IRB-approved consent from flow cytometry-confirmed B-CLL patients that were either untreated or for whom at least one month had elapsed since chemotherapy. Patients with active infections or other serious medical conditions were not included in this study.\nCCRF-CEM cells were obtained from ATCC^27. Leukemic or normal mononuclear cells were obtained by centrifugation over Histopaque 1077 (Sigma Chemical Company, St. Louis, Mo.). For purification of T cells, whole mononuclear cells from normal subjects were incubated with magnetic beads coated with appropriate antibodies, then positively purified using a magnet (Miltenyi). Cells were cultured in RPMI 1640 media (Biowhittaker, Walkersville, Md.) supplemented with 10% fetal calf serum, 50 μMol/L 2-mercaptoethanol, 2 mMol/L L-glutamine, 10 mM Hepes pH 7.4, […] (Sigma Chemical Company, St. Louis, Mo.). For isolation of glucocorticoid resistant clones, parental CCRF-CEM cells were treated with 1 μM dexamethasone for 10 days, and surviving cells diluted to ≦one cell/well in a 96-well flat-bottom tissue culture plate, grown for three weeks in media supplemented with 20% fetal calf serum and 1% insulin-transferrin-selenium (GIBCO), and then transferred to regular growth medium. […] For isolation of glucocorticoid-sensitive clones, the same procedure was used, except that treatment with dexamethasone was omitted. A glucocorticoid-sensitive subclone (CEM-S2) was inhibited in its survival by dexamethasone with an IC50=0.007 μM.\nHoechst 33342 and DiOC6(3) apoptosis assays were performed as previously described^22,28. For CCRF-CEM cell survival assays, cells were plated at a density of 3×10^4/well in 96-well flat-bottom plates in the presence of test reagents or vehicle in 0.1 mL media. Following incubation for 72 hrs, 20 μl of a 20:1 MTS (2 mg/mL)/PMS (0.92 mg/ml) solution was added to each well, and the plates incubated for 2 hrs at 37°. The absorbance (O.D.) of the formazan product was determined at 492 nm using a plate reader (Titertek Multiscan Plus, Labsystems). Percent cell viability was calculated as follows: (O.D. control sample−O.D. blank)/(O.D. test sample−O.D. blank)×100. All assays were performed in triplicate."}, "[5]": {"molecular_target": "PDE1 enzymes", "conditions": "cited from earlier work"}, "[6]": {"tested_on": "CD3+ CD4+ Sezary cells", "experiment": "Hoechst 33342 apoptosis assay, Sezary cells", "type": "cell-based, human", "conditions": "10 μM rolipram or 1 μM hydrocortisone; one patient", "experimental": "Magnetic bead purified peripheral blood T cells or leukemic cells from patients with B-CLL or Sezary syndrome were cultured in media alone or with a dose titration of hydrocortisone (solid line), followed by assessment for apoptosis by Hoechst 33342 FACS analysis at 48 hours. Using the same experimental conditions, the effect of addition of 10 μM rolipram (thick dashed line) or 10 μM rolipram and 40 μM forskolin (dotted line) was also assessed. The SEM of triplicate samples is shown; where not visible, the SEM was less than 1.0%.\nas §2, §3"}, "[7]": {"tested_on": "PDE4", "conditions": "cited from earlier work"}, "[8]": {"tested_on": "CCRF-CEM cells", "experiment": "MTS cell survival assay, CCRF-CEM cells", "type": "cell-based, human", "conditions": "72 hours", "experimental": "as §1, with “The data shown were normalized to the vehicle control. Results represent the mean±SD of triplicate determinations.” left out\n(§4) Hoechst 33342 and DiOC6(3) apoptosis assays were performed as previously described^22,28. […] The absorbance (O.D.) of the formazan product was determined at 492 nm using a plate reader (Titertek Multiscan Plus, Labsystems). […]"}, "[9]": {"tested_on": "glucocorticoid-resistant subclone (CEM-R8)", "experiment": "MTS cell survival assay, CEM-R8", "type": "cell-based, human", "conditions": "dexamethasone-resistant CCRF-CEM cells; dbcAMP dose response, 72 hours", "experimental": "as §1, with “The data shown were normalized to the vehicle control. Results represent the mean±SD of triplicate determinations.” left out\nas §4"}}, "data": [{"compound": "Nc1ncnc2c1nc(Br)n2C1OC2COP(O)(=S)OC2C1O", "note": "(centres unmarked) [Rp-8Br-cAMPS, (Rp)-8-Br-cAMPS]", "values": [{"measurement": "reduction of hydrocortisone-induced transactivation", "setting": "[1]", "result": 83, "unit": "%"}, {"measurement": "inhibition of hydrocortisone-induced apoptosis", "setting": "[2]", "result": "86±14", "unit": "%"}]}, {"compound": "C[C@@H]1C[C@H]2[C@@H]3CCC4=CC(=O)C=C[C@]4(C)[C@@]3(F)[C@@H](O)C[C@]2(C)[C@@]1(O)C(=O)CO", "note": "[dexamethasone]", "values": [{"measurement": "IC50", "setting": "[3]; Homo sapiens, CEM-S2 subclone, read-out: IC50, inhibition of survival", "result": 7, "unit": "nM"}]}, {"compound": "CN(C(=O)CCCOc1ccc2[nH]c(=O)ccc2c1)C1CCCCC1", "note": "[cilostamide]", "values": [{"measurement": "augmentation of hydrocortisone-induced apoptosis", "setting": "[4]; five B-CLL patients", "result": "nor augmented hydrocortisone-induced apoptosis"}, {"measurement": "induction of apoptosis by itself", "setting": "[4]; 10 μM, five B-CLL patients", "result": "neither induced apoptosis by itself"}]}, {"compound": "CCOC(=O)C1=C[C@]2(CC)CCCN3CCc4c(n1c1ccccc41)[C@@H]32", "note": "[vinpocetine]", "values": [{"measurement": "IC50", "setting": "[5]", "result": 21, "unit": "µM"}]}, {"compound": "C[C@]12CCC(=O)C=C1CC[C@@H]1[C@@H]2[C@@H](O)C[C@@]2(C)[C@H]1CC[C@]2(O)C(=O)CO", "note": "[hydrocortisone]", "values": [{"measurement": "apoptosis by Hoechst 33342 analysis", "setting": "[4]; B-CLL patient #1, No Rx 10", "result": 19, "unit": "%"}, {"measurement": "apoptosis by Hoechst 33342 analysis", "setting": "[4]; B-CLL patient #2, No Rx 11", "result": 16, "unit": "%"}, {"measurement": "apoptosis by Hoechst 33342 analysis", "setting": "[4]; B-CLL patient #3, No Rx 13", "result": 41, "unit": "%"}, {"measurement": "apoptosis by Hoechst 33342 analysis", "setting": "[4]; B-CLL patient #4, No Rx 23", "result": 42, "unit": "%"}, {"measurement": "apoptosis by Hoechst 33342 analysis", "setting": "[4]; B-CLL patient #5, No Rx 25", "result": 43, "unit": "%"}, {"measurement": "apoptosis by Hoechst 33342 analysis", "setting": "[4]; B-CLL patient #6, No Rx 27", "result": 33, "unit": "%"}, {"measurement": "apoptosis by Hoechst 33342 analysis", "setting": "[4]; B-CLL patient #7, No Rx 31", "result": 47, "unit": "%"}, {"measurement": "apoptosis by Hoechst 33342 analysis", "setting": "[4]; B-CLL patient #8, No Rx 33", "result": 60, "unit": "%"}, {"measurement": "apoptosis by Hoechst 33342 analysis", "setting": "[4]; B-CLL patient #9, No Rx 35", "result": 71, "unit": "%"}, {"measurement": "apoptosis by Hoechst 33342 analysis", "setting": "[4]; B-CLL patient #10, No Rx 44", "result": 75, "unit": "%"}, {"measurement": "apoptosis by Hoechst 33342 analysis", "setting": "[4]; B-CLL patient #11, No Rx 61", "result": 73, "unit": "%"}, {"measurement": "apoptotic effect used separately on Sezary leukemic cells", "setting": "[6]", "result": "little effect"}]}, {"compound": "CCCCOc1cc(CC2CNC(=O)N2)ccc1OC", "note": "(centres unmarked) [RO20-1724, 4-(3-Butoxy-4-methoxybenzyl)-2-imidazolidinone]", "values": [{"measurement": "augmentation of hydrocortisone-induced apoptosis", "setting": "[4]; five B-CLL patients", "result": "augmented hydrocortisone-induced apoptosis"}, {"measurement": "IC50", "setting": "[7]", "result": 2000, "unit": "nM"}]}, {"compound": "C=C[C@@]1(C)CC(=O)[C@@H]2[C@@]3(C)CCCC(C)(C)[C@@H]3[C@H](O)[C@H](OC(C)=O)[C@@]2(C)O1", "note": "[1,9 dideoxyforskolin]", "values": [{"measurement": "augmentation of glucocorticoid sensitivity", "setting": "[8]", "result": "failed to augment glucocorticoid sensitivity"}]}, {"compound": "CCCC(=O)Nc1ncnc2c1ncn2[C@@H]1O[C@@H]2COP(=O)(O)O[C@H]2[C@H]1OC(=O)CCC", "note": "[dbcAMP, dibutyryl cAMP]", "values": [{"measurement": "apoptotic effect combined with 1 μM hydrocortisone", "setting": "[3]; dexamethasone-sensitive CCRF-CEM cells, dbcAMP dose response", "result": "marked synergy"}, {"measurement": "apoptotic effect combined with 1 μM hydrocortisone", "setting": "[9]", "result": "marked synergy"}]}]}
